Laboratory results taken from patent EP4559912A1, “SULFUR-CONTAINING HETEROAROMATIC RING COMPOUND, PHARMACEUTICAL COMPOSITION THEREOF, AND USE THEREOF” (Evopoint Biosciences Co., Ltd., priority 2022, dated 2024).

Biological target: His-GST tagged PARG (Homo sapiens, UniProt Q86W56)
Test: In vitro PARG assay (TR-FRET)
Format: biochemical
Conditions: 4 pM His-GST tagged PARG, 30 nM Bio PARylated PARP1 substrate, 20 min at room temperature, TR-FRET Em 665/Em 615
Description: The in vitro PARG assay experiment was conducted in a standard 384-well plate with a total volume of 15 µL. To a 384-well plate containing the test compound was added 5 µL of an enzyme reaction mixture (50 mM Tris-HCL pH 7.5, 50 mM KCL, 0.01% Triton X-100, 0.01% BSA, and 4 pM His-GST tagged PARG). The plate was incubated at room temperature for 10 min, and then 5 µL of a substrate mixture (50 mM Tris-HCL pH 7.5, 50 mM KCL, 0.01% Triton X-100, 0.01% BSA, and 30 nM Bio PARylated PARP1) was added to initiate the reaction. The plate was further incubated at room temperature for 20 min, and then 5 µL of a detection reagent was added to terminate the reaction. The detection reagent was prepared from a buffer (50 mM Tris-HCl pH 7.5, 50 mM KCL, 0.01% Triton X-100, and 0.01% BSA), 3 µM compound PDD00017273, 1.5× Mab anti-6HIS XL665 (Cisbio: 61HISXLA), and 1.5× streptavidin terbium cryptate (Cisbio: 610SATLA). The final concentrations of the compound PDD00017273, the 1.5× Mab anti-6HIS XL665 (Cisbio: 61HISXLA), and the 1.5× streptavidin terbium cryptate were 1 µM, 0.5×, and 0.5×, respectively. After incubation in the dark at room temperature for 120 min, TR-FRET signals were measured at Ex 340, Em 665, and Em 615. The ratio for each well was calculated as Em 665/Em 615 (the ratio here corresponds to the ratio of fluorescence signals at the wavelengths).

Sequence of His-GST tagged PARG (Q86W56 whole entry): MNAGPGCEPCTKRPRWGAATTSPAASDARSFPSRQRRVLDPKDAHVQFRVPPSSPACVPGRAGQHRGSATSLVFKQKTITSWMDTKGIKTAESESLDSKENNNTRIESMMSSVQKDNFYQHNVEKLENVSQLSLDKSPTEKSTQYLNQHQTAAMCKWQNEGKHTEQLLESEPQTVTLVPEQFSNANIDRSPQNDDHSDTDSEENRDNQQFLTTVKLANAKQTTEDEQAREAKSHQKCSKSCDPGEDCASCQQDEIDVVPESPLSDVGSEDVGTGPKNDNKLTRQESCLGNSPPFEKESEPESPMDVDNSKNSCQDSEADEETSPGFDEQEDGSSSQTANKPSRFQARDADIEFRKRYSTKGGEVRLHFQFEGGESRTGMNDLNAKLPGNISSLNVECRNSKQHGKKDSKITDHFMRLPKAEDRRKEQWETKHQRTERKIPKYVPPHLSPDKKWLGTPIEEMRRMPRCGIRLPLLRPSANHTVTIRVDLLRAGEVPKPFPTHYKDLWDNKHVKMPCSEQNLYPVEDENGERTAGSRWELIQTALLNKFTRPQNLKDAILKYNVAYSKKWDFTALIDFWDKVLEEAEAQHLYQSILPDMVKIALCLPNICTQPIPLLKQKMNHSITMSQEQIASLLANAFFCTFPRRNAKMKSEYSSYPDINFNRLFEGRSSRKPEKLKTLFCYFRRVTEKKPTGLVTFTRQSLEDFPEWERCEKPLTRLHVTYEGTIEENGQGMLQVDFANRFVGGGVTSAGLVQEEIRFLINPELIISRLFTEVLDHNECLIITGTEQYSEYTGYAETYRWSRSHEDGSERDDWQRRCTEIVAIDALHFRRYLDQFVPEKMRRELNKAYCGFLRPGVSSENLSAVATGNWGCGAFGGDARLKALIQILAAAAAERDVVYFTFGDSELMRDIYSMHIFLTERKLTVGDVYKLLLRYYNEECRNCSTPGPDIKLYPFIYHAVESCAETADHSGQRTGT

Row | Compound | IC50
1 | CO[C@@H](C(=O)N1CCN(c2cc(S(=O)(=O)NC3(C#N)CC3)cc3c2cnn3-c2nnc(C)s2)C[C@H]1C)C(C)C [EVO29420] | < 0.1 µM
2 | CO[C@@H](C(=O)N1CCN(c2cc(S(=O)(=O)NC3(C)CC3)cc3c2cnn3-c2nnc(C)s2)C[C@H]1C)C(C)C [EVO29421] | < 0.1 µM
3 | COC(C)(C)C(=O)N1CCN(c2cc(S(=O)(=O)NC3(C#N)CC3)cc3c2cnn3-c2nnc(C(F)F)s2)C[C@H]1C [EVO29426] | < 0.1 µM
4 | C[C@@H]1CN(c2cc(S(=O)(=O)NC3(C#N)CC3)cc3c2cnn3-c2nnc(C(F)F)s2)CCN1C(=O)[C@H](O)C(C)(C)C [EVO29451] | < 0.1 µM
5 | C[C@@H]1CN(c2cc(S(=O)(=O)NC3(C#N)CC3)cc3c2cnn3-c2nnc(C(F)F)s2)CCN1C(=O)[C@](C)(O)C(F)(F)F [EVO29462] | < 0.1 µM
6 | C[C@@H]1CN(c2cc(S(=O)(=O)NC3(C#N)CC3)cc3c2cnn3-c2nnc(C(F)F)s2)CCN1C(=O)[C@@](C)(O)C(F)(F)F [EVO29463] | < 0.1 µM
7 | C[C@@H]1CN(c2cc(S(=O)(=O)NC3(C)CC3)cc3c2cnn3-c2nnc(C(F)F)s2)CCN1C(=O)C(C)(C)O [EVO29469] | < 0.1 µM
8 | C[C@@H]1CN(c2cc(S(=O)(=O)NC3(C)CC3)cc3c2cnn3-c2nnc(C(F)F)s2)CCN1C(=O)[C@](C)(O)C(F)(F)F [EVO29496] | < 0.1 µM
9 | COC(C)(C)C(=O)N1CCN(c2cc(S(=O)(=O)NC3(C)CC3)cc3c2cnn3-c2nnc(C(F)F)s2)C[C@H]1C [EVO29503] | < 0.1 µM
10 | CCOC(C)(C)C(=O)N1CCN(c2cc(S(=O)(=O)NC3(C)CC3)cc3c2cnn3-c2nnc(C(F)F)s2)C[C@H]1C [EVO29507] | < 0.1 µM
11 | C[C@@H]1CN(c2cc(S(=O)(=O)NC3(C#N)CC3)cc3c2cnn3-c2nnc(C(F)F)s2)CCN1C(=O)C(C)(C)OC(F)F [EVO29592] | < 0.1 µM
12 | C[C@@H]1CN(c2cc(S(=O)(=O)NC3(C#N)CC3)cc3c2nnn3-c2nnc(C(F)F)s2)CCN1C(=O)[C@H](O)C(C)(C)C [EVO29725] | 0.1 to 0.5 µM
13 | CO[C@@H](C(=O)N1CCN(c2cc(S(=O)(=O)NC3(C#N)CC3)cc3c2cnn3-c2nnc(C(F)F)s2)C[C@H]1C)C(C)(C)C [EVO29736] | < 0.1 µM
14 | C[C@@H]1CN(c2cc(S(=O)(=O)NC3(C#N)CC3)cc3c2c(F)nn3-c2nnc(C(F)F)s2)CCN1C(=O)[C@H](O)C(C)(C)C [EVO29757] | < 0.1 µM
15 | C[C@@H]1CN(c2cc(S(=O)(=O)NC3(C#N)CC3)cc3c2c(F)nn3-c2nnc(C(F)F)s2)CCN1C(=O)[C@@](C)(O)C(F)(F)F [EVO29761] | < 0.1 µM
16 | C[C@@H]1CN(c2cc(S(=O)(=O)NC3(C#N)CC3)cc3c2c(F)nn3-c2nnc(C(F)F)s2)CCN1C(=O)[C@](C)(O)C(F)(F)F [EVO29762] | < 0.1 µM
17 | CC(C)(C)[C@@H](O)C(=O)N1CCN(c2cc(S(=O)(=O)NC3(C#N)CC3)cc3c2cnn3-c2nnc(C(F)F)s2)C[C@H]1CF [EVO29778] | < 0.1 µM
18 | C[C@@H]1CN(c2cc(S(=O)(=O)NC3(C#N)CC3)cc3c2ccn3-c2nnc(C(F)F)s2)CCN1C(=O)[C@H](O)C(C)(C)C [EVO29788] | < 0.1 µM
19 | C[C@@H]1CN(c2c(F)c(S(=O)(=O)NC3(C#N)CC3)cc3c2c(F)nn3-c2nnc(C(F)F)s2)CCN1C(=O)[C@H](O)C(C)(C)C [EVO29792] | 0.1 to 0.5 µM
20 | C[C@@H]1CN(c2cc(S(=O)(=O)NC3(C)CC3)cc3c2c(F)nn3-c2nnc(C(F)F)s2)CCN1C(=O)[C@H](O)C(C)(C)C [EVO29798] | < 0.1 µM
